Reference: US6150414A, “Compositions and methods for treating viral infections” (priority 1992, dated 2000)
Values joined by “and” are separate entries in the source; they are usually repeats but may differ in a detail not shown here. Identical values can stand only once. Like-named read-outs stand apart in the source and are kept apart here.

Test system: Friend Leukemia Virus
Assay: Inhibition of Friend Leukemia Virus-induced splenomegaly in mice, compounds intraperitoneally 24 hours after virus (Example 1(a))
Assay type: in vivo, BALB/c mice
Set-up: Actual Spleen Weight / Average Spleen Weight: unit not given here
Details: for Actual Spleen Weight: single animal; for inhibition in vivo at 0.1 mg / inhibition in vivo at 0.05 mg / inhibition in vivo at 0.2 mg: Mus musculus, ip; for Pooled Average % Inhibition: pooled over 50, 100, 200, 2 × 100 micrograms
Description: The effects of compositions according to the present invention on infection of mammals with Friend Leukemia Virus (FV) were examined.
Friend Leukemia Virus is an aggressive retrovirus which induces an acute erythroleukemia in sensitive strains of mice such as BALB/c and NIH swiss mice as described in Friend, C. J., Exp. Med. 105: 307-324, 1957; Friend, C. et al. Proc. Natl. Acad. Sci. USA 68: 378-383, 1971; Friend, C. et al. Natl. Cancer Inst. Mongr. 22: 508-552, 1966. The malignant transformation is the result of the combined activities of the Spleen Focus Forming Virus (SFFV) and the ecotropic Murine Friend Leukemia Helper Virus (F-MuLV). The acute erythroleukemia is characterized by hepatosplenomegaly (a marked increase in the size of the spleen and liver) and a severe anemia.
Friend Leukemia Virus was prepared by homogenizing the enlarged spleen of a mouse previously infected with FV, 10 days after intravenous virus injection. The spleen was homogenized in phosphate buffered saline in a volume equal to ten times the weight of the isolated spleen.
The effects of compositions according to the present invention on the increase in spleen size (splenomegaly) of BALB/c mice (Jackson Labs, Bar Harbor, ME) was examined. In these experiments, the virus (10^6 focus forming units--FFU) was inoculated intravenously and 100 micrograms of the compounds indicated in Table II were administered to the mice intraperitoneally 24 hours later. Each compound was administered once to two mice. The animals were sacrificed ten days later and their spleens weighed.
The present assay has been developed from similar assays using hypericin or pseudohypericin and employing higher numbers of experimental animals per group (e.g. 4 animals). It was discovered however that the specificity and sensitivity of this assay are such that an experimental group of two animals is of more than adequate predictive value.
As used in Table II (and subsequent Tables of this Example l(a) and (b), "average percent inhibition" is calculated as follows: [formula] wherein "ASWNC" designates "average spleen weight of negative control"; "ASWE" designates "average spleen weight of experimental (treated) subject"; and "ASWPC" designates "average spleen weight of positive control". Average spleen weight is the numerical average of spleen weights of each experimental group (in Table II each such group includes two members).
In these experiments, the virus (10^6 focus forming units--FFU) was inoculated intravenously, and the indicated doses of the antiviral compounds of this invention were administered to the BALB/c mice intraperitoneally 24 hours later. The animals were then sacrificed ten days later and their spleens weighed.
Pseudohypericin was diluted in phosphate buffered saline with 1% ethanol.
An expanded series of experiments was next performed in which various concentrations (i.e. 50, 100, 200 and 2×100, i.e., 100 micrograms administered twice) of a different set of PAC compounds (numbers 16-29 and 30-36 in Table III below) were administered intraperitoneally each according to the same protocol described above. Compounds 16-29 all had 3-5 fused, aromatic rings and no side groups except for oxygen or hydroxyl groups, whereas compounds 30-36 all had 3 fused aromatic rings and side chains selected from the group of oxygen, hydroxyl and methyl.
When 2 doses of the compounds were given, the second dose was administered 24-48 hours after the first injection. The animals were infected and splenomegaly determined as above for the compounds in Table II. In Table III, "pooled average percent inhibition" is calculated by adding the average percent inhibition for each experiment with the same compound and dividing the sum by the number of experiments (i.e. the number 4). […]

[1] = 100 micrograms i.p. once, 24 h after FV, Table II
[2] = dose 2 × 100 (micrograms) i.p., Table III, read-out: Average Perdosage % Inhibition
[3] = dose 50 (micrograms) i.p., Table III, read-out: Average Perdosage % Inhibition
[4] = dose 100 (micrograms) i.p., Table III, read-out: Average Perdosage % Inhibition
[5] = dose 200 (micrograms) i.p., Table III, read-out: Average Perdosage % Inhibition
[6] = dose 2 × 100 (micrograms) i.p., Table III
[7] = dose 50 (micrograms) i.p., Table III
[8] = dose 100 (micrograms) i.p., Table III
[9] = dose 200 (micrograms) i.p., Table III
[10] = 24 h, read-out: Average % Inhibition, 100 micrograms i.p. once, 24 h after FV, Table II
[11] = 24 h, 100 micrograms i.p. once, 24 h after FV, Table II, read-out: Average % Inhibition
[12] = read-out: Average Perdosage % Inhibition, dose 2 × 100 (micrograms) i.p., Table III
[13] = read-out: Average Perdosage % Inhibition, dose 50 (micrograms) i.p., Table III
[14] = read-out: Average Perdosage % Inhibition, dose 100 (micrograms) i.p., Table III
[15] = read-out: Average Perdosage % Inhibition, dose 200 (micrograms) i.p., Table III
[16] = dose 2 × 100 (micrograms) i.p., second dose 24-48 hours later, Table III

Compound | Average Spleen Weight [1] | Average Spleen Weight [6] | Average Spleen Weight [7] | Average Spleen Weight [8] | Average Spleen Weight [9] | Pooled Average % Inhibition (Table III) | further results
O=C1OC(=O)c2ccc3c4ccc5c6c(ccc(c7ccc1c2c73)c64)C(=O)OC5=O [Compound 2, 3,4,9,10-Perylenetetracarboxylic dianhydride] | 0.8439 | – | – | – | – | – | Average % Inhibition [1]: 1.3%; Actual Spleen Weight [1]: 0.8678 and 0.8200
O=C1c2ccccc2C(=O)C1c1ccccc1 [Compound 33, 2-phenyl-1,2 inadione] | – | 0.9127 | 0.9410 | 1.7763 | 0.7938 | 51% | inhibition in vivo at 0.1 mg [2]: 61%; inhibition in vivo at 0.05 mg [3]: 60%; inhibition in vivo at 0.1 mg [4]: 16%; inhibition in vivo at 0.2 mg [5]: 68%
c1cc2ccc3ccc4ccc5ccc6ccc1c1c2c3c4c5c61 [Compound 8, Coronene] | 0.4739 | – | – | – | – | – | inhibition of FV-induced splenomegaly / anti-retroviral activity (Example 1(a)): significantly inhibited FV-induced splenomegaly; inhibition in vivo at 0.1 mg [10]: 44.6%
O=C1CC2CC(=O)c3ccc4ccccc4c3C2c2c1ccc1ccccc21 (centres unmarked) [Compound 13, 3,4,4A,5,6,12C-Hexahydrophenanthro (3,4-C)Phenanthrene-3,6-Dione] | 0.4742 | – | – | – | – | – | inhibition in vivo at 0.1 mg [11]: 44.6%
C=Cc1c2ccccc2cc2ccccc12 [Compound 29, 9-Vinylanthracene] | – | 1.3747 | 1.6517 | 1.2199 | 1.2933 | 14% | inhibition in vivo at 0.1 mg [12]: 15%; inhibition in vivo at 0.05 mg [13]: 4%; inhibition in vivo at 0.1 mg [14]: 26%; inhibition in vivo at 0.2 mg [15]: 21%; Actual Spleen Weight [16]: 1.3747; Actual Spleen Weight [9]: 1.2933
O=C1c2ccccc2-c2cc(O)c3c4c(O)cc5c6c(ccc(c7ccc1c2c73)c64)C(=O)c1ccccc1-5 [Compound 4, 16,17-Dihydroxydibenzanthrone] | 0.4194 | – | – | – | – | – | Average % Inhibition [1]: 50.9%; Actual Spleen Weight [1]: 0.4151 and 0.4234
O=c1c2ccccc2oc2ccccc12 [Compound 31, Xanthone] | – | 0.9003 | 1.0006 | 0.9806 | 0.9431 | 59% | inhibition in vivo at 0.1 mg [12]: 62%; inhibition in vivo at 0.05 mg [13]: 57%; inhibition in vivo at 0.1 mg [14]: 58%; inhibition in vivo at 0.2 mg [15]: 60%
O=C1CC2CCc3ccc4ccccc4c3C2c2c1ccc1ccccc21 (centres unmarked) [Compound 15, 3,4,4A,5,6,12C-Hexahydrophenanthro (3,4-C)phenanthren-3-one] | 0.3739 | – | – | – | – | – | inhibition in vivo at 0.1 mg [11]: 56.3%
C1CCc2c(c3c(c4c2CCCC4)CCCC3)C1 [Compound 16, Dodecahydrotriphenylene] | – | 1.1867 | 0.9508 | 1.6057 | 1.2478 | 24% | Actual Spleen Weight [16]: 1.161 and 1.2072; Average Perdosage % Inhibition [6]: 28%; Average Perdosage % Inhibition [7]: 44%; Actual Spleen Weight [7]: 0.9062 and 0.9954; Actual Spleen Weight [8]: 1.6206 and 1.5907; Average Perdosage % Inhibition [9]: 24%; Actual Spleen Weight [9]: 1.2007 and 1.2948
Cc1ccc2cc3ccccc3cc2c1 [Compound 25, 2-Methylanthracene] | – | 1.1758 | 1.2104 | 1.0606 | 1.1904 | 30% | inhibition in vivo at 0.1 mg [12]: 29%; inhibition in vivo at 0.05 mg [13]: 26%; inhibition in vivo at 0.1 mg [14]: 37%; inhibition in vivo at 0.2 mg [15]: 28%
c1ccc(C2=C(c3ccccc3)C(c3ccccc3)=C(c3ccccc3)C2)cc1 [Compound 26, 1,2,3,4-Tetraphenyl-1,3-cyclopentadiene] | – | 1.5966 | 1.1985 | 1.0280 | 1.1131 | 25% | inhibition in vivo at 0.1 mg [2]: 0%; inhibition in vivo at 0.05 mg [3]: 27%; inhibition in vivo at 0.1 mg [4]: 39%; inhibition in vivo at 0.2 mg [5]: 33%
O=c1oc(=O)c2c3ccc4cccc5c6cccc7ccc(c12)c(c76)c3c45 [Compound 5, Benzo(GHI)Perylene-1,2-Dicarboxylic Anhydride] | 0.5101 | – | – | – | – | – | inhibition in vivo at 0.1 mg [10]: 40.5%
c1cc2c3c(ccc4c3c1CCC4)CCC2 [Compound 23, 1,2,3,6,7,8-Hexahydropyrene] | – | 1.1281 | 1.2092 | 1.5131 | 1.0961 | 25% | inhibition in vivo at 0.1 mg [2]: 32%; inhibition in vivo at 0.05 mg [3]: 26%; inhibition in vivo at 0.1 mg [4]: 6%; inhibition in vivo at 0.2 mg [5]: 34%
O=c1oc(=O)c2c3ccc4ccc5ccc6ccc7ccc(c12)c1c7c6c5c4c31 [Compound 6, 3,4-Coronenedicarboxylic anhydride] | 0.8700 | – | – | – | – | – | –
CC1=CC2CCc3ccc4ccccc4c3C2c2c1ccc1ccccc21 (centres unmarked) [Compound 12, 4A,5,6,12C-Tetrahydro-3-Methylphenanthro (3,4-C)phenanthrene] | 0.4531 | – | – | – | – | – | inhibition in vivo at 0.1 mg [10]: 47.1%
c1cc2cccc3c4cccc5cccc(c(c1)c23)c54 [Compound 27, Perylene] | – | 1.4342 | 1.3148 | 1.5227 | 1.6044 | 9% | inhibition in vivo at 0.1 mg [12]: 11%; inhibition in vivo at 0.05 mg [13]: 19%; inhibition in vivo at 0.1 mg [14]: 5%; inhibition in vivo at 0.2 mg [15]: 1%
c1ccc2c(c1)ccc1ccccc12 [Compound 17, Phenanthrene] | – | 1.0683 | 1.1350 | 1.2864 | 1.3501 | 26% | inhibition in vivo at 0.1 mg [2]: 36%; inhibition in vivo at 0.05 mg [3]: 31%; inhibition in vivo at 0.1 mg [4]: 21%; inhibition in vivo at 0.2 mg [5]: 17%
C1=CCC2=C(C1)CC1=C(CC=CC1)C2 [Compound 21, 1,4,5,8,9,10-Hexahydroanthracene] | – | 1.2624 | 1.4036 | 1.4121 | 1.2947 | 17% | inhibition in vivo at 0.1 mg [2]: 23%; inhibition in vivo at 0.05 mg [3]: 13%; inhibition in vivo at 0.1 mg [4]: 13%; inhibition in vivo at 0.2 mg [5]: 21%
